Several values for one entry are separate records, joined by “and”; a condition that tells them apart may be missing. Equal values may be shown once.
Assays:
[1] = test system: EBV-specific CTL lines (EBV-CTL); test: CID-induced elimination/apoptosis of transduced EBV-CTLs (GFP, annexin V/7-AAD flow cytometry); format: cell-based, human; settings: for elimination of GFP+ cells: GFPhigh
[2] = test system: Jurkat; test: CID-induced apoptosis (annexin V) in transduced Jurkat cells; format: cell-based, human; settings: iFas-transduced Jurkat, 10 nM, 8 hours
[3] = test system: gene-modified allodepleted cells (SFG.iCasp9.2A.CD19); test: AP20187-induced apoptosis of gene-modified allodepleted T cells (annexin V/7-AAD); format: cell-based, human
Description: Suicide gene functionality was assessed by adding a small molecule synthetic homodimerizer, AP20187 (Ariad Pharmaceuticals; Cambridge, Mass.), at 10 nM final concentration the day following CD19 immunomagnetic selection. Cells were stained with annexin V and 7-amino-actinomycin (7-AAD)(BD Pharmingen) at 24 hours and analyzed by flow cytometry. Cells negative for both annexin V and 7-AAD were considered viable, cells that were annexin V positive were apoptotic, and cells that were both annexin V and 7-AAD positive were necrotic. The percentage killing induced by dimerization was corrected for baseline viability as follows: Percentage killing=100%−(% Viability in AP20187-treated cells÷% Viability in non-treated cells).
Cells were maintained in T cell medium containing 50 U/ml IL-2 until 22 days after transduction. A portion of cells was reactivated on 24-well plates coated with […] OKT3 and 1 μg/ml anti-CD28 (Clone CD28.2, BD Pharmingen, San Jose, Calif.) for 48 to 72 hours. CD19 expression and suicide gene function in both reactivated and non-reactivated cells were measured on day 24 or 25 post transduction.
The day following immunomagnetic selection, 10 nM of the chemical inducer of dimerization, AP20187, was added to induce apoptosis, which appeared within 24 hours. […] Killing efficiency after correction for baseline viability was about 92.9%±3.8%. Large-scale CD19 selection produced cells that were killed with similar efficiency as small-scale selection: mean viability with and without AP20187, and percentage killing, in large and small scale were about 3.9%, about 84.0%, about 95.4% (n=3) and about 6.6%, about 79.3%, about 91.4% (n=5) respectively. AP20187 was non-toxic to non-transduced cells: viability with and without AP20187 was about 86%±9% and 87%±8% respectively (n=6).
To assess the stability of transgene expression and function, cells were maintained in T cell culture medium and low dose IL-2 (50 U/ml) until […] after transduction. A portion of cells was then reactivated with OKT3/anti-CD28. CD19 expression was analyzed by flow cytometry 48 to 72 hours later, and suicide gene function was assessed by treatment with 10 nM AP20187. The obtained are for cells from day 5 post transduction (ie, 1 day after CD 19 selection) and day 24 post transduction, with or without 48-72 hours of reactivation (5 experiments). In 2 experiments, CD25 selection was performed after OKT3/aCD28 activation to further enrich activated cells. Error bars represent standard deviation. * indicates p<0.05 when compared to cells from day 5 post transduction. By day 24, surface CD19 expression fell from about 98%±1% to about 88%±4% (p<0.05) with a parallel decrease in mean fluorescence intensity (MFI) from 793±128 to 478±107 (p<0.05) (see FIG. 13B). Similarly, there was a significant reduction in suicide gene function: residual viability was 19.6±5.6% following treatment with AP20187; after correction for baseline viability of 54.8±20.9%, this equated to killing efficiency of only 63.1±6.2%.
To determine whether the decrease in transgene expression with time was due to reduced transcription following T cell quiescence or to elimination of transduced cells, a portion of cells were reactivated on day 22 post transduction with OKT3 and anti-CD28 antibody. […] CD19 expression increased from about 88%±4% to about 93%±4% (p<0.01) and CD19 MFI increased from 478±107 to 643±174 (p<0.01). […] Killing of the CD25 negative fraction was 78.6±9.1%.

[4] = test system: MSCs; test: CID-induced apoptosis of iCasp9-ΔCD19 transduced undifferentiated MSCs
[5] = T cells selected for high expression, overnight 10 nM
[6] = 10 nM, 24 hours, day after CD19 selection

Compound: CC[C@H](C(=O)N1CCCC[C@H]1C(=O)O[C@H](CCc1ccc(OC)c(OC)c1)c1cccc(OCC(=O)NCC(CNC(=O)COc2cccc([C@@H](CCc3ccc(OC)c(OC)c3)OC(=O)[C@@H]3CCCCN3C(=O)[C@@H](CC)c3cc(OC)c(OC)c(OC)c3)c2)CN(C)C)c1)c1cc(OC)c(OC)c(OC)c1 [AP20187]
- concentration sufficient to obtain the maximal deletion effect ([1]; F-Casp9M.I.GFPhigh, survival of GFP+ cells on day 7): 1 nM
- time to apoptotic characteristics (cell shrinkage and fragmentation) ([1]; GFPhigh-selected cells, 10 nM): ≤ 14 h
- deletion of transduced cells ([1]; GFPhigh-selected iCasp9M cells, 10 nM, day 7): 99.1%
- apoptotic (annexin-V+/7-AAD−) phenotype [1, 5]: 64%
- necrotic (annexinV+/7-AAD+) phenotype [1, 5]: 30%
- reduction in mean fluorescence intensity of GFP in surviving CTLs ([1]; iCasp9M-transduced CTLs after CID): 70%
- elimination of GFP+ cells ([1]; iCasp9M-transduced CTLs, 10 nM, day 7): 99.2%+/−0.14
- elimination of GFP+ cells ([1]; iFas-transduced CTLs, 10 nM, day 7): 89.3%+/−4.9
- apoptotic cells (annexin-V) [2]: 56.4%+/−15.6
- killing efficiency after correction for baseline viability [3, 6]: about 92.9%±3.8
- viable cells (annexin V and 7-AAD negative) [3, 6]: about 5.5%±2.5
- killing efficiency ([3]; OKT3/aCD28-reactivated cells, day 24 or 25): ~84.6%±8.0
- mean viability ([3]; small-scale CD19 selection, n=5): about 6.6%
- viability of non-transduced cells ([3]; with AP20187, n=6): about 86%±9
- apoptosis index ([4]; iCasp9-negative MSCs, 50 nM, 24 hrs, listed as CID): 20±7% and 19%
- apoptotic death ([4]; iCasp9-positive MSCs, 50 nM, 24 hrs): 93±1%
- apoptotic cells ([4]; magnetically immunoselected iCasp9-CD19-positive MSCs): More than 95%
- annexin positive cells ([4]; non-transduced control MSC (Control/CID), 50 nM): 15%

Source: US20220152100A1, “METHODS FOR CONTROLLED ACTIVATION OR ELIMINATION OF THERAPEUTIC CELLS” (Bellicum Pharmaceuticals, Inc., priority 2014, published 2022)
